How the values were obtained:
Type in all cases: in vivo
artemisia vulgaris L. = experiment: herbicidal activity, soil treatment one day after sowing
Soja Hispida L. (soya) = experiment: activity of PA 106 on useful species
Excerpt: (§1) Method of evaluation of the results (of tests):
(§2) 0 = no activity and no difference with respect to the control;
(§3) 1 slight differences with respect to the control;
(§4) 3 = considerable activity with damages that definitely impair the further development of most of the small plants; an activity degree already useful for practical purposes;
(§5) 4 = maximum of activity with lack of germination or total containment of the small plants in the emerging stage.
(§6) In the case of an intermediate activity between two classes of the scale, both values are recorded with the one which corresponds to the preeminent activity preceding.
(§7) TABLE 3 reports data on the herbicidal activity against infesting herbs, while TABLE 4 reports data concerning the activity on useful species of agricultural cultivations. These tables employ the criterion explained previously. The product was spread on the soil one day after sowing, in quantities of 1, 3, 6, 8, 10, 12 and 14 kg/ha.

[1] = system: Brassica oleracea, L. (cabbage); experiment: activity of PA 106 on useful species
Excerpt: as §1, §2, §3, §4, §5, §6, §7

[2] = system: Hordeum vulgare L. (barley); experiment: activity of PA 106 on useful species
Excerpt: as §1, §2, §3, §4, §5, §6, §7

Brassica napus L. colza = experiment: activity of PA 106 on useful species
Excerpt: as §1, §2, §3, §4, §5, §6, §7

solanum Lycopersicum L. = experiment: activity on agrarian species, soil treatment one day after sowing; conditions: 6 kg/ha
Procedure, shortened: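 Soil treated one day after sowing. Activity scored against untreated control on a 0–4 scale, from 0 (no difference) to 4 (no germination or total containment at emergence); 3 marks practically useful damage. Intermediate activity recorded as both adjacent values.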

Gladiolus sp. = experiment: activity of PA 106 on useful species (treatment after unearthing the tubers)
Excerpt: as §1, §2, §3, §4, §5, §6, §7
In the case of gladiolus, the treatment was carried out after unearthing the tubers.

[3] = system: amaranthus retroflexus L.; experiment: herbicidal activity, soil treatment one day after sowing
zea mais L. (corn) = experiment: activity on agrarian species, soil treatment one day after sowing
Procedure, shortened: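 Crop injury rated 0–4 relative to control, from no difference up to complete germination failure or arrest of emerging plants; in-between responses get both values. Product spread on soil at 1–14 kg/ha (1, 3, 6, 8, 10, 12, 14) one day post-sowing.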

[4] = system: triticum vulgare L. (wheat); experiment: as above
Procedure, shortened: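 Wheat effects rated against untreated control on a 0 (no difference) to 4 (no germination or emergence fully contained) scale, with two-class scores for intermediate activity. Application was to soil one day post-sowing at rates of 1, 3, 6, 8, 10, 12 and 14 kg/ha.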

[5] = system: beta vulgaris L. (sugar-beet); experiment: as above
Procedure, shortened: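 Product applied to soil one day after sowing at 1, 3, 6, 8, 10, 12 and 14 kg/ha. Crop damage scored against untreated control on a 0-4 scale, 4 meaning no germination or total containment of emerging plants.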

vicia sativa L. = experiment: herbicidal activity, soil treatment one day after sowing
Procedure, shortened: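 Pre-emergence soil treatment one day after sowing; activity scored visually on a […] scale against untreated control, from slight difference (1) to no germination or total containment at emergence (4); intermediate activity recorded as both classes, preeminent value first.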

chenopodium album L. = experiment: as above
rice [6] = experiment: plot-test in open field planted with rice; conditions: even at 30 kg/ha of active substance
rice [7] = experiment: Example 3 rice field test, granular composition; conditions: 4, 6, 8 and 10 kg/ha
Description: (§8) In this test a granular composition of PA 106 containing 5% of active principle and 95% of bentonite was used. The treatment was carried out in a rice field with areas of from 900 to 1000 sq.m on naked soil flooded just shortly before the sowing of the rice. There were used doses of granulate equal to 4, 6, 8 and 10 kg of active substance per hectar of surface.

Echinocloa crus-galli = experiment: Example 3 rice field test, granular composition; conditions: 6 kg of PA 106 per hectar
Description: as §8

CCC(C)N(C(=O)c1ccc(Cl)c(Cl)c1)C(C)CC (centres unmarked) [PA106, 3,4-dichloro-N,N-di-sec.butyl-benzamide]
herbicidal activity, Table 3 (artemisia vulgaris L.; 1 kg/ha): 0
activity on B, 0-4 scale (artemisia vulgaris L.; 2 kg/ha): 0-1
herbicidal activity, Table 3 (artemisia vulgaris L.; 3 kg/ha): 1
activity on B, 0-4 scale (artemisia vulgaris L.; 4 kg/ha): 1-2
activity on B, 0-4 scale (artemisia vulgaris L.; 6 kg/ha): 3
herbicidal activity, Table 3 (artemisia vulgaris L.; 6 kg/ha): 3
herbicidal activity, Table 3 (artemisia vulgaris L.; 8 kg/ha): 3
herbicidal activity, Table 3 (artemisia vulgaris L.; 10 kg/ha): 3
herbicidal activity, Table 3 (artemisia vulgaris L.; 12 kg/ha): 4/3
herbicidal activity, Table 3 (artemisia vulgaris L.; 14 kg/ha): 4
activity on useful species, Table 4 (Soja Hispida L. (soya); 1 kg/ha): 0
activity on useful species, Table 4 (Soja Hispida L. (soya); 3 kg/ha): 0
activity on useful species, Table 4 (Soja Hispida L. (soya); 6 kg/ha): 0
activity on useful species, Table 4 (Soja Hispida L. (soya); 8 kg/ha): 0
activity on useful species, Table 4 (Soja Hispida L. (soya); 10 kg/ha): 0/1
activity on useful species, Table 4 (Soja Hispida L. (soya); 12 kg/ha): 0/1
activity on useful species, Table 4 (Soja Hispida L. (soya); 14 kg/ha): 0/1
activity on useful species, Table 4 ([1]; 1 kg/ha): 0
activity on useful species, Table 4 ([1]; 3 kg/ha): 0
activity on useful species, Table 4 ([1]; 6 kg/ha): 0/1
activity on useful species, Table 4 ([1]; 8 kg/ha): 1
activity on useful species, Table 4 ([1]; 10 kg/ha): 1/2
activity on useful species, Table 4 ([1]; 12 kg/ha): 1/2
activity on useful species, Table 4 ([1]; 14 kg/ha): 2
activity on useful species, Table 4 ([2]; 1 kg/ha): 0
activity on useful species, Table 4 ([2]; 3 kg/ha): 0
activity on useful species, Table 4 ([2]; 6 kg/ha): 0
activity on useful species, Table 4 ([2]; 8 kg/ha): 0
activity on useful species, Table 4 ([2]; 10 kg/ha): 0/1
activity on useful species, Table 4 ([2]; 12 kg/ha): 0/1
activity on useful species, Table 4 ([2]; 14 kg/ha): 0/1
activity on useful species, Table 4 (Brassica napus L. colza; 1 kg/ha): 0
activity on useful species, Table 4 (Brassica napus L. colza; 3 kg/ha): 0
activity on useful species, Table 4 (Brassica napus L. colza; 6 kg/ha): 1
activity on useful species, Table 4 (Brassica napus L. colza; 8 kg/ha): 1/2
activity on useful species, Table 4 (Brassica napus L. colza; 10 kg/ha): 2/3
activity on useful species, Table 4 (Brassica napus L. colza; 12 kg/ha): 3
activity on useful species, Table 4 (Brassica napus L. colza; 14 kg/ha): 3
activity on M, 0-4 scale (solanum Lycopersicum L.): 0
activity on useful species, Table 4 (Gladiolus sp.; 1 kg/ha): 0
activity on useful species, Table 4 (Gladiolus sp.; 3 kg/ha): 0
activity on useful species, Table 4 (Gladiolus sp.; 6 kg/ha): 0
activity on useful species, Table 4 (Gladiolus sp.; 8 kg/ha): 0
activity on useful species, Table 4 (Gladiolus sp.; 10 kg/ha): 0
activity on useful species, Table 4 (Gladiolus sp.; 12 kg/ha): 0
activity on useful species, Table 4 (Gladiolus sp.; 14 kg/ha): 0
herbicidal activity, Table 3 ([3]; 1 kg/ha): 0
activity on A, 0-4 scale ([3]; 2 kg/ha): 1
herbicidal activity, Table 3 ([3]; 3 kg/ha): 1/2
activity on A, 0-4 scale ([3]; 4 kg/ha): 2
activity on A, 0-4 scale ([3]; 6 kg/ha): 3
herbicidal activity, Table 3 ([3]; 6 kg/ha): 3
herbicidal activity, Table 3 ([3]; 8 kg/ha): 4/3
herbicidal activity, Table 3 ([3]; 10 kg/ha): 4
herbicidal activity, Table 3 ([3]; 12 kg/ha): 4
herbicidal activity, Table 3 ([3]; 14 kg/ha): 4
activity on useful species, Table 4 (zea mais L. (corn); 1 kg/ha): 0
activity on useful species, Table 4 (zea mais L. (corn); 3 kg/ha): 0
activity on O, 0-4 scale (zea mais L. (corn); 6 kg/ha): 0
activity on useful species, Table 4 (zea mais L. (corn); 6 kg/ha): 0
activity on useful species, Table 4 (zea mais L. (corn); 8 kg/ha): 0
activity on useful species, Table 4 (zea mais L. (corn); 10 kg/ha): 0
activity on useful species, Table 4 (zea mais L. (corn); 12 kg/ha): 0/1
activity on useful species, Table 4 (zea mais L. (corn); 14 kg/ha): 1
activity on useful species, Table 4 ([4]; 1 kg/ha): 0
activity on useful species, Table 4 ([4]; 3 kg/ha): 0
activity on N, 0-4 scale ([4]; 6 kg/ha): 0
activity on useful species, Table 4 ([4]; 6 kg/ha): 0
activity on useful species, Table 4 ([4]; 8 kg/ha): 0/1
activity on useful species, Table 4 ([4]; 10 kg/ha): 0/1
activity on useful species, Table 4 ([4]; 12 kg/ha): 1
activity on useful species, Table 4 ([4]; 14 kg/ha): 1
activity on useful species, Table 4 ([5]; 1 kg/ha): 0
activity on useful species, Table 4 ([5]; 3 kg/ha): 0
activity on H, 0-4 scale ([5]; 6 kg/ha): 1
activity on useful species, Table 4 ([5]; 6 kg/ha): 1
activity on useful species, Table 4 ([5]; 8 kg/ha): 1
activity on useful species, Table 4 ([5]; 10 kg/ha): 1/2
activity on useful species, Table 4 ([5]; 12 kg/ha): 2
activity on useful species, Table 4 ([5]; 14 kg/ha): 2/3
activity on F, 0-4 scale (vicia sativa L.; 2 kg/ha): 0
activity on F, 0-4 scale (vicia sativa L.; 4 kg/ha): 0
activity on F, 0-4 scale (vicia sativa L.; 6 kg/ha): 0
herbicidal activity, Table 3 (chenopodium album L.; 1 kg/ha): 0
activity on C, 0-4 scale (chenopodium album L.; 2 kg/ha): 0-1
herbicidal activity, Table 3 (chenopodium album L.; 3 kg/ha): 1
activity on C, 0-4 scale (chenopodium album L.; 4 kg/ha): 1-2
activity on C, 0-4 scale (chenopodium album L.; 6 kg/ha): 3
herbicidal activity, Table 3 (chenopodium album L.; 6 kg/ha): 3
herbicidal activity, Table 3 (chenopodium album L.; 8 kg/ha): 2/3
herbicidal activity, Table 3 (chenopodium album L.; 10 kg/ha): 3
herbicidal activity, Table 3 (chenopodium album L.; 14 kg/ha): 3/4
phytotoxic effects on the rice (rice [6]): no phytotoxic effects
damage to rice (rice [7]): without suffering any damage
inhibition of growth of the infestant (Echinocloa crus-galli): for all practical purposes be considered as total
